{"source": "patent US9216999B2", "about": "“Substituted pyrrolo[2,3-h][1,6]naphthyridines and compositions thereof as JAK inhibitors” (priority 2011, dated 2015)", "key": {"[1]": {"target": "Tyk2 (Homo sapiens (Human), UniProt P29597)", "sequence (P29597 whole entry)": "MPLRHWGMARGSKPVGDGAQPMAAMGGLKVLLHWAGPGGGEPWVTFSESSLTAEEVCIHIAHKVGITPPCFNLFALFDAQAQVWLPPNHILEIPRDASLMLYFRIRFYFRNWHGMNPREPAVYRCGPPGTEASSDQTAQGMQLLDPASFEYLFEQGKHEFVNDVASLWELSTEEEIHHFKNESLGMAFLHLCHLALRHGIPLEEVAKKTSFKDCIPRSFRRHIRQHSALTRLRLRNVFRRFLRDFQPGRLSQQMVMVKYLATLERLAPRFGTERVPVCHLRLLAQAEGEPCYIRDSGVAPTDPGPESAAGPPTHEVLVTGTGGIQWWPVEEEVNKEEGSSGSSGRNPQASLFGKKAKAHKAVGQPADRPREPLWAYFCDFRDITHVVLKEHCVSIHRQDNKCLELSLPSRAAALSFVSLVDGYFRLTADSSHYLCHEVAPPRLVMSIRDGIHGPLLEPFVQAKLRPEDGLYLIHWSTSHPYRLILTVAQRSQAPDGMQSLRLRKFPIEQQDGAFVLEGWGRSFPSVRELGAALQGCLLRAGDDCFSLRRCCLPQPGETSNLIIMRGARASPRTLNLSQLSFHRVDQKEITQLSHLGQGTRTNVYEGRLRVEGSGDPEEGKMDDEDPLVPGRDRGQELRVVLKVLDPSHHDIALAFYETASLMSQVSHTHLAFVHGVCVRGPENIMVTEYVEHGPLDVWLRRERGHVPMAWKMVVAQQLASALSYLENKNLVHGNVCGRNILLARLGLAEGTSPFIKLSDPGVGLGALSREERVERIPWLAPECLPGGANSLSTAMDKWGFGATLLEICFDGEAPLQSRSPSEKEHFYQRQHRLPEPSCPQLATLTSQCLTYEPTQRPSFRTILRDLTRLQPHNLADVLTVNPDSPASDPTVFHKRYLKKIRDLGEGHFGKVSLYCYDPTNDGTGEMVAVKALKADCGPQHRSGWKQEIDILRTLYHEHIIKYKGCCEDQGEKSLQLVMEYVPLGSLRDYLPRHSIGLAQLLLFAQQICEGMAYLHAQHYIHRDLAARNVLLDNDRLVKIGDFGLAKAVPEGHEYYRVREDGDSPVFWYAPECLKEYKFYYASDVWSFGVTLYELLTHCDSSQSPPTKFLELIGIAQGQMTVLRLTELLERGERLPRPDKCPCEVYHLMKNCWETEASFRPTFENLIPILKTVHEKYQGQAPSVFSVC", "assay": "Tyk2 enzyme assay (Assay Example^b 1)"}, "[2]": {"target": "JAK1 (Homo sapiens (Human), UniProt P23458)", "assay": "JAK1 enzyme assay (Assay Example^b 1)"}, "[3]": {"target": "JAK3 (Homo sapiens (Human), UniProt P52333)", "sequence (P52333 whole entry)": "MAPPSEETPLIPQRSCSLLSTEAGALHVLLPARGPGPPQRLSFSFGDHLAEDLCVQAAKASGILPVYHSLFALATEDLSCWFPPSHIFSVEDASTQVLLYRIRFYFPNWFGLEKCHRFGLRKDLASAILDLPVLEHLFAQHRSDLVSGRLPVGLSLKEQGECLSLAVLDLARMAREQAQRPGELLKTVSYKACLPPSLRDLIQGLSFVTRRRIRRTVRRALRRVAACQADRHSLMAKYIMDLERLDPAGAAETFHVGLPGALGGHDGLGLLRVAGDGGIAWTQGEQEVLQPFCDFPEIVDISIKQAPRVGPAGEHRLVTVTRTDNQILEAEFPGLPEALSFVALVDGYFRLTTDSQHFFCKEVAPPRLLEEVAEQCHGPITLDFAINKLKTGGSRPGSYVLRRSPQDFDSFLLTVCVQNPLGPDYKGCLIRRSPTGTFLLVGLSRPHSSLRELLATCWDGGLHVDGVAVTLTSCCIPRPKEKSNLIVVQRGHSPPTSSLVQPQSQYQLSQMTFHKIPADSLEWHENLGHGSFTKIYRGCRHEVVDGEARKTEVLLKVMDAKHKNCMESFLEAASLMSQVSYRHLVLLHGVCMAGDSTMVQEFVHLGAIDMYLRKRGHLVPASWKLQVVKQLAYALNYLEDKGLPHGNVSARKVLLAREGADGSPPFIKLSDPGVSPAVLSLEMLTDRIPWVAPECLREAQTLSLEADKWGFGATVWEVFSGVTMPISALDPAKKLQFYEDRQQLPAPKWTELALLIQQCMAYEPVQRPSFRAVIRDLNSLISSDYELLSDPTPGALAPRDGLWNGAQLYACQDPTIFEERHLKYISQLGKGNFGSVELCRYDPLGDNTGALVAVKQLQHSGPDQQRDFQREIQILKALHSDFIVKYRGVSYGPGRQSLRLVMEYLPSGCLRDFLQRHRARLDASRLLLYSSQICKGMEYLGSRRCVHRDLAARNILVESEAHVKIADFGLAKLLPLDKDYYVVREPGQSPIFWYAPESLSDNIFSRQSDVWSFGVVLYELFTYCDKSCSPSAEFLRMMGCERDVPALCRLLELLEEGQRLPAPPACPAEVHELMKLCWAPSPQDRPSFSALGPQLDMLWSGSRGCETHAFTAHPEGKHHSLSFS", "assay": "JAK3 enzyme assay (Assay Example^b 1)"}, "[4]": {"target": "JAK2 (Homo sapiens (Human), UniProt O60674)", "assay": "JAK2 enzyme assay (Assay Example^b 1)"}, "[5]": {"settings": "IC50 (μM) JAK1, Table^b 78, ATP 100 μM"}, "[6]": {"settings": "IC50 (μM) TYK2, Table^b 80, ATP 100 μM"}, "[7]": {"settings": "IC50 (μM) JAK2, Table^b 80, ATP 100 μM"}, "[8]": {"settings": "IC50 (μM) JAK1, Table^b 80, ATP 100 μM"}, "[9]": {"settings": "IC50 (μM) JAK2, Table^b 79, ATP 100 μM"}, "[10]": {"settings": "IC50 (μM) JAK3, Table^b 80, ATP 100 μM"}}, "note": "Where two headings read alike, the source gives them in different places."}
{"smiles": "O=c1c2cnc3[nH]ccc3c2n(C2CCCCC2)c(=O)n1CC(F)(F)F", "note": "[Synthetic Example^b 139, 1-cyclohexyl-3-(2,2,2-trifluoroethyl)-1H-pyrrolo[3′,2′:5,6]pyrido[4,3-d]pyrimidine-2,4(3H,7H)-dione]", "values": [{"measurement": "IC50", "setting": "[1]; IC50 (μM) TYK2, ATP 100 μM", "result": "> 1", "unit": "µM"}, {"measurement": "IC50", "setting": "[2]; IC50 (μM) JAK1, ATP 100 μM", "result": 0.1, "unit": "µM"}, {"measurement": "IC50", "setting": "[3]; IC50 (μM) JAK3, ATP 100 μM", "result": "> 1", "unit": "µM"}]}
{"smiles": "CC1OCN(C2CCCCC2)c2c1cnc1[nH]ccc21", "note": "(stereo not drawn) [compound 1]", "values": [{"measurement": "IC50", "setting": "[1]; IC50 (μM) TYK2, Table^b 79, ATP 100 μM", "result": 4.1, "unit": "µM"}, {"measurement": "IC50", "setting": "[2]; [5]", "result": 0.38, "unit": "µM"}, {"measurement": "IC50", "setting": "[3]; IC50 (μM) JAK3, Table^b 78, ATP 100 μM", "result": 2, "unit": "µM"}]}
{"smiles": "O=c1[nH]c(=O)n(C2CCN(CCN3CCOCC3)CC2)c2c1cnc1[nH]ccc12", "note": "[compound 108]", "values": [{"measurement": "IC50", "setting": "[1]; IC50 (μM) TYK2, ATP 100 μM", "result": "> 1", "unit": "µM"}, {"measurement": "IC50", "setting": "[4]; IC50 (μM) JAK2, ATP 100 μM", "result": "> 1", "unit": "µM"}, {"measurement": "IC50", "setting": "[2]; IC50 (μM) JAK1, ATP 100 μM", "result": 0.37, "unit": "µM"}, {"measurement": "IC50", "setting": "[3]; IC50 (μM) JAK3, ATP 100 μM", "result": "> 1", "unit": "µM"}]}
{"smiles": "O=c1[nH]c(=O)n(C2CCN(Cc3ccc(Br)s3)CC2)c2c1cnc1[nH]ccc12", "note": "[compound 89]", "values": [{"measurement": "IC50", "setting": "[1]; IC50 (μM) TYK2, ATP 100 μM", "result": "> 1", "unit": "µM"}, {"measurement": "IC50", "setting": "[4]; IC50 (μM) JAK2, ATP 100 μM", "result": "> 1", "unit": "µM"}, {"measurement": "IC50", "setting": "[2]; IC50 (μM) JAK1, ATP 100 μM", "result": 0.011, "unit": "µM"}, {"measurement": "IC50", "setting": "[3]; IC50 (μM) JAK3, ATP 100 μM", "result": "> 1", "unit": "µM"}]}
{"smiles": "O=C(Nc1nncs1)N1CCC(N2C(=O)NCc3cnc4[nH]ccc4c32)CC1", "note": "[compound 64]", "values": [{"measurement": "IC50", "setting": "[1]; [6]", "result": 0.17, "unit": "µM"}, {"measurement": "IC50", "setting": "[4]; [7]", "result": 0.02, "unit": "µM"}, {"measurement": "IC50", "setting": "[2]; [8]", "result": 0.012, "unit": "µM"}]}
{"smiles": "c1cc2c3c(cnc2[nH]1)COCN3C1CCCCC1", "note": "[compound 2]", "values": [{"measurement": "IC50", "setting": "[4]; [9]", "result": 1.9, "unit": "µM"}, {"measurement": "IC50", "setting": "[2]; [5]", "result": 0.33, "unit": "µM"}]}
{"smiles": "O=C1NCc2cnc3[nH]ccc3c2N1C1CCN(S(=O)(=O)Cc2ccccc2)CC1", "note": "[compound 60]", "values": [{"measurement": "IC50", "setting": "[1]; [6]", "result": "> 1", "unit": "µM"}, {"measurement": "IC50", "setting": "[4]; [7]", "result": 0.48, "unit": "µM"}, {"measurement": "IC50", "setting": "[2]; [8]", "result": 0.35, "unit": "µM"}, {"measurement": "IC50", "setting": "[3]; [10]", "result": "> 1", "unit": "µM"}]}
{"smiles": "O=CC1CCC(n2c(=O)[nH]c(=O)c3cnc4[nH]ccc4c32)CC1", "note": "(stereo not drawn) [compound 133]", "values": [{"measurement": "IC50", "setting": "[1]; IC50 (μM) TYK2, ATP 100 μM", "result": 0.41, "unit": "µM"}, {"measurement": "IC50", "setting": "[2]; IC50 (μM) JAK1, ATP 100 μM", "result": 0.012, "unit": "µM"}, {"measurement": "IC50", "setting": "[3]; IC50 (μM) JAK3, ATP 100 μM", "result": "> 1", "unit": "µM"}]}
{"smiles": "O=C(CC(F)(F)F)N(CC(F)(F)F)C[C@H]1CC[C@H](n2c(=O)[nH]c(=O)c3cnc4[nH]ccc4c32)CC1", "note": "[compound 155]", "values": [{"measurement": "IC50", "setting": "[4]; IC50 (μM) JAK2, ATP 100 μM", "result": 0.055, "unit": "µM"}, {"measurement": "IC50", "setting": "[2]; IC50 (μM) JAK1, ATP 100 μM", "result": 0.0021, "unit": "µM"}]}
{"smiles": "CC1CCN(C(=O)C2CCC(C(C)(C)C)CC2)CC1n1ccc(=O)c2cnc3[nH]ccc3c21", "note": "(single isomer, unassigned) [Synthetic Example^b 48a, 1-{1-[4-(tert-Butyl)cyclohexanecarbonyl]-4-methylpiperidin-3-yl}-1H-pyrrolo[2,3-h][1,6]naphthyridin-4(7H)-one]", "values": [{"measurement": "IC50", "setting": "[1]; [6]", "result": "> 1", "unit": "µM"}, {"measurement": "IC50", "setting": "[2]; [8]", "result": 0.14, "unit": "µM"}, {"measurement": "IC50", "setting": "[3]; [10]", "result": "> 1", "unit": "µM"}]}
{"smiles": "N#CCn1c(=O)c2cnc3[nH]ccc3c2n(C2CCCCC2)c1=O", "note": "[Synthetic Example^b 137, 2-(1-Cyclohexyl-2,4-dioxo-1H-pyrrolo[3′,2′:5,6]pyrido[4,3-d]pyrimidin-3(2H,4H,7H)-yl)acetonitrile]", "values": [{"measurement": "IC50", "setting": "[1]; IC50 (μM) TYK2, ATP 100 μM", "result": "> 1", "unit": "µM"}, {"measurement": "IC50", "setting": "[4]; IC50 (μM) JAK2, ATP 100 μM", "result": "> 1", "unit": "µM"}, {"measurement": "IC50", "setting": "[2]; IC50 (μM) JAK1, ATP 100 μM", "result": 0.057, "unit": "µM"}, {"measurement": "IC50", "setting": "[3]; IC50 (μM) JAK3, ATP 100 μM", "result": 0.91, "unit": "µM"}]}
{"smiles": "C[C@@H]1CCN(S(=O)(=O)CC(F)(F)F)C[C@@H]1n1ccc(=O)c2cnc3[nH]ccc3c21", "note": "(racemic) [compound 11]", "values": [{"measurement": "IC50", "setting": "[4]; [9]", "result": 0.033, "unit": "µM"}]}
{"smiles": "O=c1ccn(C2CCN(Cc3ccc(C(F)(F)F)cc3)CC2)c2c1cnc1[nH]ccc12", "note": "[Synthetic Example^b 56, 1-{1-[4-(trifluoromethyl)benzyl]piperidin-4-yl}-1H-pyrrolo[2,3-h][1,6]naphthyridin-4(7H)-one]", "values": [{"measurement": "IC50", "setting": "[1]; [6]", "result": "> 1", "unit": "µM"}, {"measurement": "IC50", "setting": "[4]; [7]", "result": 0.24, "unit": "µM"}, {"measurement": "IC50", "setting": "[2]; [8]", "result": 0.019, "unit": "µM"}, {"measurement": "IC50", "setting": "[3]; [10]", "result": "> 1", "unit": "µM"}]}
{"smiles": "N#CCC[C@H]1CC[C@H](n2c(=O)[nH]c(=O)c3cnc4[nH]ccc4c32)CC1", "note": "[Synthetic Example^b 134, 3-[trans-4-(2,4-Dioxo-2,3,4,7-tetrahydro-1H-pyrrolo[3′,2′:5,6]pyrido[4,3-d]pyrimidin-1-yl)cyclohexyl]propanenitrile]", "values": [{"measurement": "IC50", "setting": "[1]; IC50 (μM) TYK2, ATP 100 μM", "result": 0.032, "unit": "µM"}, {"measurement": "IC50", "setting": "[2]; IC50 (μM) JAK1, ATP 100 μM", "result": 0.002, "unit": "µM"}, {"measurement": "IC50", "setting": "[3]; IC50 (μM) JAK3, ATP 100 μM", "result": 0.81, "unit": "µM"}]}
{"smiles": "C[C@@H]1CCN(Cc2ccccc2)C[C@@H]1n1cc(Br)c(=O)c2cnc3[nH]ccc3c21", "note": "(racemic) [compound 24]", "values": [{"measurement": "IC50", "setting": "[4]; IC50 (μM) JAK2", "result": 0.74, "unit": "µM"}]}
{"smiles": "O=c1ccn(C2C3CC4CC2CC(O)(C4)C3)c2c1cnc1[nH]ccc12", "note": "(stereo not drawn) [compound 106]", "values": [{"measurement": "IC50", "setting": "[1]; IC50 (μM) TYK2, ATP 100 μM", "result": 0.38, "unit": "µM"}, {"measurement": "IC50", "setting": "[4]; IC50 (μM) JAK2, ATP 100 μM", "result": 0.25, "unit": "µM"}, {"measurement": "IC50", "setting": "[2]; IC50 (μM) JAK1, ATP 100 μM", "result": 0.047, "unit": "µM"}, {"measurement": "IC50", "setting": "[3]; IC50 (μM) JAK3, ATP 100 μM", "result": 0.61, "unit": "µM"}]}
{"smiles": "O=c1[nH]c(=O)n(C2C3CC4CC2CC(O)(C4)C3)c2c1cnc1[nH]ccc12", "note": "(stereo not drawn) [compound 105]", "values": [{"measurement": "IC50", "setting": "[1]; IC50 (μM) TYK2, ATP 100 μM", "result": "> 1", "unit": "µM"}, {"measurement": "IC50", "setting": "[4]; IC50 (μM) JAK2, ATP 100 μM", "result": "> 1", "unit": "µM"}, {"measurement": "IC50", "setting": "[3]; IC50 (μM) JAK3, ATP 100 μM", "result": "> 1", "unit": "µM"}]}
{"smiles": "CC1CCN(C(=O)C2CCC(C(C)(C)C)CC2)CC1n1ccc(=O)c2cnc3[nH]ccc3c21", "note": "(single isomer, unassigned) [Synthetic Example^b 48b, 1-{1-[4-(tert-Butyl)cyclohexanecarbonyl]-4-methylpiperidin-3-yl}-1H-pyrrolo[2,3-h][1,6]naphthyridin-4(7H)-one]", "values": [{"measurement": "IC50", "setting": "[1]; read-out: IC50 (μM) TYK2, Table^b 80, ATP 100 μM", "result": "> 1", "unit": "µM"}, {"measurement": "IC50", "setting": "[2]; [8]", "result": 0.094, "unit": "µM"}, {"measurement": "IC50", "setting": "[3]; [10]", "result": 0.36, "unit": "µM"}]}
